Experimental data from patent US20250109127A1, “METHODS OF USE OF PHENOXYPROPYLAMINE COMPOUNDS TO TREAT DEPRESSION” (Minerva Neurosciences, Inc., priority 2013, published 2025).
“And” between values parts separate entries of the source, which are not always exact repeats. Equal entries are not always repeated. Structures can show the parent of a compound that is named as a salt.

Test system: norepinephrin release in the rat prefrontal cortex
Experiment: Microdialysis: norepinephrine release in prefrontal cortex after I.P. administration
Type: in vivo
Conditions: for NOREPINEPHRIN (% of respective basal), individual animal: 0.3 mg/kg I.P., c2-c9 = R#11,12,18,23,29,30,17,24; for NOREPINEPHRIN (% of respective basal), individual animal / Norepinephrin release, individual animals: hydrochloride; for Norepinephrin release, MEAN / Norepinephrin release, individual animals: 3 mg/kg IP; for Norepinephrin release, MEAN: n = 8; for Norepinephrin release, individual animals: per animal R#15,16,21,22,27,28,09,10
Procedure: The aim of the study was to evaluate, using microdialysis, the effects of an intraperitoneal (I.P.) administration in rats of three different doses of SON-117 on dopamine and its metabolites, serotonin and its metabolite (5-HIAA), and norepinephrine levels in prefrontal cortex.
Thirty-two adult male Wistar rats were used for the whole study (4 groups of eight animals planned for the study, Table 1).
Surgery was performed on rats weighing about 300 g at the beginning of the experiments. Rats were anaesthetized with Ketamine (50 mg/kg) & Xylazine (15 mg/kg) by intramuscular administration. The animals were placed in a stereotaxic apparatus in the flat-skull position at a constant setting of −3.3 mm between ear bars and the incisor bar. The animals were treated with a local anesthesic (xylocaine 1%, Astra Zeneca) and an analgesic (Temgesic, from Schering Plough, 0.05 mg/kg, s.c.). A rostrocaudal midline incision was made with a lancet to expose the dorsal skull surface. The “stereotaxic zero” was defined by the Bregma in accordance with Paxinos and Watson's atlas (1986). A hole was drilled in the skull with a drill and the meninges were pierced with a sterile needle to implant a CMA12 guide cannula which later received the dialysis probe.
Coordinates used for implanting guide cannula in prefrontal cortex from Bregma were anteroposterior 3.7 mm, mediolateral 0.8 mm, and dorsoventral −2 mm (top of the probe was at −5 mm). The guide cannula was fixed to the skull with two stainless steel screws (1.88 mm outside diameter) anchored. An application of dental cement was added. A plastic collar allowed each animal to be tethered to a Swivel assembly of the CMA 120 awake animal system. Following surgery, rats were kept in individual cages and allowed to recover for a minimum of 3-5 days before the experimentation. The rats were handled and put in plastic bowl for 10 min at least every day to habituate the animals to their new environment for the dialysis. An I.P. administration with saline was also performed every day.
Dialysis probes (CMA12/3 mm, membrane, 20 kD cut-off, Carnegie Medicine, Stockholm, Sweden), were carefully washed before inserting into the guide cannula. The wash was performed with the artificial cerebrospinal fluid (aCSF) medium (NaCl 147 mM, KCl 2.7 mM, CaCl2 1.2 mM, MgCl2 0.85 mM) at room temperature. The dialysis system was then equilibrated at 20° C. at a perfusion rate of 1 μl/min with a Carnegie pump (CMA100). All catheters (FEP tubing, internal volume of 1.2 μl/10 cm, and tubing adaptors) used for microdialysis were treated in the same conditions.
The probes duly prepared were inserted into the guide cannula and the CMA120 Swivel assembly secured to the animal using a plastic collar. Flow through the dialysis probe with aCSF was maintained at a rate of 1 μl/min during the whole experimentation. The first four fractions (corresponding to 2 hours) were discarded to avoid the effects of parenchymal disturbance and to ensure that an approximate steady-state level was reached. Fractions were then collected over a period of 8.5 h during which time the animals remained quiet. The dialysates were automatically collected with an autosampler (microfraction collector CMA 140, Carnegie Medicin) and stored at −80° C. until analysis. […] Perfusion was then maintained for 7 hours with aCSF. The dialysates (30 μl) were collected into 300 μl vials, transferred into dry ice and then kept frozen (−80° C.) until analysis. Frozen samples were shipped to a partner for analysis. At the end of the microdialysis study, a PBS with colored ink was perfused through the probe in order to visualize the dialyzed area.
Catecholamine assay: Concentrations of dopamine, DOPAC, HVA, 5-HIAA, 5-HT, and norepinephrin were determined for each sample by HPLC coupled with electrochemical detection. […]

Cc1nnc(-c2cc3c(OC[C@@H](O)CN4CCC(c5ccc(Cl)c(Cl)c5)CC4)cccc3o2)o1 [SON-117, (S)-1-(4-(3,4-dichlorophenyl)piperidino)-3-(2-(5-methyl-1,3,4-oxadiazol-2-yl)benzo(b)furan-4-yloxy)-2-propanol hydrochloride]
NOREPINEPHRIN (% of respective basal), individual animal (T0-T30 min): 93.23 % of respective basal and 109.66 % of respective basal and 94.50 % of respective basal and 91.56 % of respective basal and 103.16 % of respective basal and 122.80 % of respective basal and 169.48 % of respective basal and 88.04 % of respective basal | NOREPINEPHRIN (% of respective basal), individual animal (T30-T1 h): 104.42 % of respective basal and 107.28 % of respective basal and 98.29 % of respective basal and 99.12 % of respective basal and 108.78 % of respective basal and 113.81 % of respective basal and 113.33 % of respective basal and 88.14 % of respective basal | NOREPINEPHRIN (% of respective basal), individual animal (T1 h 30-T2 h): 99.20 % of respective basal and 86.76 % of respective basal and 108.98 % of respective basal and 92.71 % of respective basal and 104.84 % of respective basal and 66.21 % of respective basal and 122.80 % of respective basal and 84.63 % of respective basal | NOREPINEPHRIN (% of respective basal), individual animal (T1 h-T1 h 30): 86.88 % of respective basal and 98.78 % of respective basal and 112.17 % of respective basal and 98.26 % of respective basal and 98.75 % of respective basal and 106.99 % of respective basal and 111.81 % of respective basal and 90.76 % of respective basal | NOREPINEPHRIN (% of respective basal), individual animal (T2 h 30-T3 h): 84.23 % of respective basal and 104.60 % of respective basal and 128.99 % of respective basal and 92.07 % of respective basal and 101.47 % of respective basal and 118.46 % of respective basal and 126.06 % of respective basal and 98.73 % of respective basal | NOREPINEPHRIN (% of respective basal), individual animal (T2 h-T2 h 30): 76.65 % of respective basal and 101.56 % of respective basal and 126.15 % of respective basal and 88.09 % of respective basal and 101.06 % of respective basal and 105.86 % of respective basal and 113.08 % of respective basal and 89.61 % of respective basal | NOREPINEPHRIN (% of respective basal), individual animal (T3 h 30-T4 h): 100.21 % of respective basal and 138.06 % of respective basal and 105.65 % of respective basal and 106.80 % of respective basal and 135.47 % of respective basal and 201.02 % of respective basal and 113.60 % of respective basal | NOREPINEPHRIN (% of respective basal), individual animal (T3 h-T3 h 30): 120.36 % of respective basal and 139.04 % of respective basal and 95.95 % of respective basal and 93.13 % of respective basal and 129.61 % of respective basal and 137.11 % of respective basal and 99.05 % of respective basal | NOREPINEPHRIN (% of respective basal), individual animal (T4 h 30-T5 h): 91.48 % of respective basal and 153.66 % of respective basal and 179.53 % of respective basal and 95.60 % of respective basal and 107.83 % of respective basal and 118.17 % of respective basal and 146.73 % of respective basal and 113.45 % of respective basal | NOREPINEPHRIN (% of respective basal), individual animal (T4 h-T4 h 30): 88.77 % of respective basal and 125.81 % of respective basal and 155.70 % of respective basal and 105.70 % of respective basal and 109.87 % of respective basal and 112.18 % of respective basal and 148.00 % of respective basal and 108.96 % of respective basal | NOREPINEPHRIN (% of respective basal), individual animal (T5 h 30-T6 h): 91.57 % of respective basal and 160.34 % of respective basal and 198.08 % of respective basal and 89.28 % of respective basal and 123.68 % of respective basal and 111.49 % of respective basal and 183.96 % of respective basal and 124.88 % of respective basal | NOREPINEPHRIN (% of respective basal), individual animal (T5 h-T5 h 30): 62.74 % of respective basal and 157.36 % of respective basal and 184.76 % of respective basal and 91.16 % of respective basal and 116.17 % of respective basal and 125.90 % of respective basal and 153.13 % of respective basal and 108.22 % of respective basal | NOREPINEPHRIN (% of respective basal), individual animal (T6 h-T6 h 30): 107.74 % of respective basal and 153.11 % of respective basal and 204.06 % of respective basal and 115.67 % of respective basal and 145.69 % of respective basal and 126.68 % of respective basal | Norepinephrin release, MEAN (T0-T30 min): 95.03 % of respective basal | Norepinephrin release, MEAN (T30-T1 h): 97.36 % of respective basal | Norepinephrin release, individual animals (T30-T1 h): 88.36 % of respective basal and 115.03 % of respective basal and 81.23 % of respective basal and 99.91 % of respective basal and 84.13 % of respective basal and 101.13 % of respective basal and 112.87 % of respective basal and 96.25 % of respective basal | Norepinephrin release, MEAN (T1 h 30-T2 h): 89.60 % of respective basal | Norepinephrin release, individual animals (T1 h 30-T2 h): 82.12 % of respective basal and 112.19 % of respective basal and 79.22 % of respective basal and 97.76 % of respective basal and 65.77 % of respective basal and 100.10 % of respective basal and 89.95 % of respective basal and 89.72 % of respective basal | Norepinephrin release, MEAN (T1 h-T1 h 30): 107.89 % of respective basal | Norepinephrin release, individual animals (T1 h-T1 h 30): 172.07 % of respective basal and 112.74 % of respective basal and 81.36 % of respective basal and 103.59 % of respective basal and 89.22 % of respective basal and 99.07 % of respective basal and 110.12 % of respective basal and 94.94 % of respective basal | Norepinephrin release, MEAN (T2 h 30-T3 h): 89.71 % of respective basal | Norepinephrin release, individual animals (T2 h 30-T3 h): 86.59 % of respective basal and 101.34 % of respective basal and 74.62 % of respective basal and 92.57 % of respective basal and 76.53 % of respective basal and 86.90 % of respective basal and 101.62 % of respective basal and 97.13 % of respective basal | Norepinephrin release, MEAN (T2 h-T2 h 30): 89.42 % of respective basal | Norepinephrin release, individual animals (T2 h-T2 h 30): 76.71 % of respective basal and 108.71 % of respective basal and 69.68 % of respective basal and 89.57 % of respective basal and 80.18 % of respective basal and 97.07 % of respective basal and 98.74 % of respective basal and 94.71 % of respective basal
